In the Kinase Knowledgebase extract (Sharma et al. 2016):

Each compound was assayed against PIK3CA (human) (UniProt P42336) (assay: Assessment of PIK3CA Kinase Activity).
Sequence of PIK3CA (human) (P42336 whole entry, looked up): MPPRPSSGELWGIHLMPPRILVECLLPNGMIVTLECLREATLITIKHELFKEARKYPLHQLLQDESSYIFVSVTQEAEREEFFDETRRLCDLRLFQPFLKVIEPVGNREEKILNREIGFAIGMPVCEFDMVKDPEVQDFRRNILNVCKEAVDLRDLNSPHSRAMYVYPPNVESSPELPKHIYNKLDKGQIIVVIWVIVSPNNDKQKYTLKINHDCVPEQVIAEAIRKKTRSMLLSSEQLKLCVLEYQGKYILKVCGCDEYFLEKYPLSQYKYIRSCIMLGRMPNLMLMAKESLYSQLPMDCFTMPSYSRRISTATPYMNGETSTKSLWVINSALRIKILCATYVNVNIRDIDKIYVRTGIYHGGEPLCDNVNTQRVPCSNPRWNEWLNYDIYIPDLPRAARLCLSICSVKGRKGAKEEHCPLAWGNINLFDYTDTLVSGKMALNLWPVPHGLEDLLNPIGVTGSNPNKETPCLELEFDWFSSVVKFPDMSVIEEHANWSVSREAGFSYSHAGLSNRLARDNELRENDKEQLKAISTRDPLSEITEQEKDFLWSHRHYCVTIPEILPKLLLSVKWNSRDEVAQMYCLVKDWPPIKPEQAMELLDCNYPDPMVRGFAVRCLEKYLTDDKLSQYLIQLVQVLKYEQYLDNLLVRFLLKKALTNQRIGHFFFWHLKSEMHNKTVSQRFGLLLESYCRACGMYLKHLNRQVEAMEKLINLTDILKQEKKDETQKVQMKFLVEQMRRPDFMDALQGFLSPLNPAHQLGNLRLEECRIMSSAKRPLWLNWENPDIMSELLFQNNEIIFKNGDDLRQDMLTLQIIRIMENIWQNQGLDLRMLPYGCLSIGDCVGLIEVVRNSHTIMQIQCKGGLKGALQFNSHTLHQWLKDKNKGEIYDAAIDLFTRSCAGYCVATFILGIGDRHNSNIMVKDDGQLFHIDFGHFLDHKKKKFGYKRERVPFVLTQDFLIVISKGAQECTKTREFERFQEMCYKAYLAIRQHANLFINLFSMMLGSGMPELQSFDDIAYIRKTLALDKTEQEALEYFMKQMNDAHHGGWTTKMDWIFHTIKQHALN
With `CS(=O)(=O)NC1CCN(c2nn3c(-c4cnc(N)c(C(F)(F)F)c4)cnc3s2)CC1` the IC50 was 162 nM. Work on `COc1cncc(-c2cnc3sc(NC4CCN(C(=O)OC(C)(C)C)CC4)nn23)c1` yielded an IC50 of 50 to 1000 nM. `CC(C)(C)OC(=O)N[C@H]1CC[C@@H](Nc2nn3c(-c4cnc(N)c(C(F)(F)F)c4)cnc3s2)CC1` showed an IC50 of 50 to 1000 nM. Work on `CS(=O)(=O)N1CCC(N(CCN2CCCC2)c2nn3c(-c4cnc(N)c(C(F)(F)F)c4)cnc3s2)CC1` yielded an IC50 of 1 to 50 nM. For `Nc1ncc(-c2cnc3sc(N4CCCC(N)C4)nn23)cc1C(F)(F)F` (centres undefined), the IC50 was 50 to 1000 nM. `Nc1ncc(-c2cnc3sc(N4CCC(N)C4)nn23)cc1C(F)(F)F` (centres undefined) was tested, and the IC50 was 1000 nM. Compound `Nc1ncc(-c2c(Cl)nc3sc(N[C@H]4CC[C@@H](N)CC4)nn23)cc1C(F)(F)F` has an IC50 of 50 to 1000 nM. Work on `CS(=O)(=O)N1CCC2(CC1)CN(c1nn3c(-c4cnc(N)c(C(F)(F)F)c4)cnc3s1)C2` yielded an IC50 of 50 to 1000 nM. `COc1cncc(-c2cnc3sc(NCCCNS(C)(=O)=O)nn23)c1` gave an IC50 of 50 to 1000 nM. Compound `C[C@]1(O)CC[C@@H](Nc2nn3c(-c4cnc(N)c(C(F)(F)F)c4)cnc3s2)CC1` has an IC50 of 22 nM. `Nc1ncc(-c2cnc3sc(NC4CCC5(CC4)OCCO5)nn23)cc1C(F)(F)F` was tested, and the IC50 was 34 nM. In the case of `CN[C@H]1CC[C@H](N(C)c2nn3c(-c4cnc(N)c(C(F)(F)F)c4)cnc3s2)CC1`, the IC50 is reported as 50 to 1000 nM. For `Nc1ncc(-c2cnc3sc(N4C[C@H]5CNC[C@H]5C4)nn23)cc1C(F)(F)F`, the IC50 was 50 to 1000 nM. `CC(C)(C)OC(=O)NCCCNc1nn2c(-c3cnc(N)c(C(F)(F)F)c3)cnc2s1` showed an IC50 of 50 to 1000 nM. `Nc1ncc(-c2cnc3sc(N4CCC(O)CC4)nn23)cc1C(F)(F)F` gave an IC50 of 50 to 1000 nM. `CS(=O)(=O)N1CCC(Nc2nn3c(-c4cnc(N)c(C(F)(F)F)c4)cnc3s2)CC1` gave an IC50 of 12 nM. `Nc1ncc(-c2cnc3sc(NC4CC5(CCNCC5)C4)nn23)cc1C(F)(F)F` gave an IC50 of 17 nM. `NCCNc1nn2c(-c3cnc(N)c(C(F)(F)F)c3)cnc2s1` was tested, and the IC50 was 50 to 1000 nM. Compound `CN(c1nn2c(-c3cnc(N)c(C(F)(F)F)c3)cnc2s1)C1CCNCC1` has an IC50 of 50 to 1000 nM.
